Test results: patent US20260055103A1, “2,3,4,9-TETRAHYDRO-1H-PYRIDO[3,4-B]INDOLE DERIVATIVES AS ESTROGEN RECEPTOR MODULATORS FOR THE TREATMENT OF CANCER” (Olema Pharmaceuticals, Inc., priority 2022, published 2026)

Each molecule was assayed against T1, estrogen receptor (Homo sapiens, UniProt P03372) (assay: Alkaline phosphatase (AP) assay in ECC-1 cells, agonist mode (no E2) and antagonist mode (500 pM E2)). Details: 3 days, AP activity normalized to 500 pM E2 alone, agonist mode without E2, antagonist mode with 500 pM E2.
T1 construct: endogenous in cells; host or cells: ECC-1 cells
T1 sequence (P03372 1-595): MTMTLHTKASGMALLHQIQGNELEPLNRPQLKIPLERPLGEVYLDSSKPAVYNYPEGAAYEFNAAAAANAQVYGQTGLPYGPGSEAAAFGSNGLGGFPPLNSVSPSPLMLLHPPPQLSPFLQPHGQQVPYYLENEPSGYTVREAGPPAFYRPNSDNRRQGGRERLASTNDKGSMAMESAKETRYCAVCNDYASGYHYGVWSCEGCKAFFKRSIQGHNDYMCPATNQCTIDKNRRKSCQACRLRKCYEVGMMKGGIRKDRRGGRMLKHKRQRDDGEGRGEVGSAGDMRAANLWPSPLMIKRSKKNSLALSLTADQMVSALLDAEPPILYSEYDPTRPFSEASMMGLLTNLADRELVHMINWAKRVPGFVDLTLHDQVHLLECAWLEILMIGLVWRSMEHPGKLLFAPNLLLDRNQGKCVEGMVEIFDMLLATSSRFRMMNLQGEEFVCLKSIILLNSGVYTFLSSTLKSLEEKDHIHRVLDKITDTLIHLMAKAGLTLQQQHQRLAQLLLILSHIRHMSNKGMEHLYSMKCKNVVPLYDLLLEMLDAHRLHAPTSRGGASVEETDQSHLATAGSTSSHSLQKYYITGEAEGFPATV
Format: cell-based
Procedure: ECC-1 cells were trypsinized and resuspended in hormone-depleted media and plated at a density of 15 k cells per well into a 96-well plate for at least 4 hours. Cells were treated with test compounds in the absence of E2 (for agonist mode) or in the presence of 500 pM E2 (for antagonist mode) for 3 days and plates were subsequently frozen at −80° C. Thawed plates were incubated with a chromogenic substrate of AP, p-nitrophenyl phosphate (Thermo Fisher Scientific), for 40 minutes at 42° C., and absorbances were read at 405 nm. AP activity was normalized to the activity of 500 pM E2 alone.
The compound numbers correspond to the compound numbers of Table 1 and 2. Compounds having an activity designated as “+” provided estrogen receptor agonism having (i) at least 80% increase in the E2-normalized signal in the AP assay (agonist mode) and (ii) no more than 80% reduction in the E2-normalized signal in the AP assay (antagonist mode). Compounds having an activity designated as “++” provided estrogen receptor antagonism having (i) between 10% and 80% increase in the E2-normalized signal in the AP assay (agonist mode) and (ii) between 10% and 80% reduction in the E2-normalized signal in the AP assay (antagonist mode).

| SMILES | Activity (estrogen receptor modulation, agonism and antagonism) |
| --- | --- |
| CCCN1CC(Cc2ccc([C@@H]3c4[nH]c5ccccc5c4C[C@@H](C)N3CC(C)(C)F)s2)C1 [Example I-1, 3-({5-[(1S,3R)-2-(2-fluoro-2-methylpropyl)-3-methyl-1H,2H,3H,4H,9H-pyrido[3,4-b]indol-1-yl]thiophen-2-yl}methyl)-1-propylazetidine] | ++ (estrogen receptor antagonism having (i) between 10% and 80% increase in the E2-normalized signal in the AP assay (agonist mode) and (ii) between 10% and 80% reduction in the E2-normalized signal in the AP assay (antagonist mode)) |
| C[C@@H]1Cc2c([nH]c3ccccc23)[C@@H](c2ccc(CC3CN(CCCF)C3)s2)N1CC(C)(C)F [Example I-2, 3-({5-[(1S,3R)-2-(2-fluoro-2-methylpropyl)-3-methyl-1H,2H,3H,4H,9H-pyrido[3,4-b]indol-1-yl]thiophen-2-yl}methyl)-1-(3-fluoropropyl)azetidine] | ++ (estrogen receptor antagonism having (i) between 10% and 80% increase in the E2-normalized signal in the AP assay (agonist mode) and (ii) between 10% and 80% reduction in the E2-normalized signal in the AP assay (antagonist mode)) |
| CCCN1CC(Cc2cnc([C@@H]3c4[nH]c5ccccc5c4C[C@@H](C)N3CC(C)(C)F)s2)C1 [Example I-3, 2-[(1S,3R)-2-(2-fluoro-2-methylpropyl)-3-methyl-1H,2H,3H,4H,9H-pyrido[3,4-b]indol-1-yl]-5-[(1-propylazetidin-3-yl)methyl]-1,3-thiazole] | + (estrogen receptor agonism having (i) at least 80% increase in the E2-normalized signal in the AP assay (agonist mode) and (ii) no more than 80% reduction in the E2-normalized signal in the AP assay (antagonist mode)) |
| C[C@@H]1Cc2c([nH]c3ccccc23)[C@@H](c2ncc(CC3CN(CCCF)C3)s2)N1CC(C)(C)F [Example I-4, 2-[(1S,3R)-2-(2-fluoro-2-methylpropyl)-3-methyl-1H,2H,3H,4H,9H-pyrido[3,4-b]indol-1-yl]-5-{[1-(3-fluoropropyl)azetidin-3-yl]methyl}-1,3-thiazole] | + (estrogen receptor agonism having (i) at least 80% increase in the E2-normalized signal in the AP assay (agonist mode) and (ii) no more than 80% reduction in the E2-normalized signal in the AP assay (antagonist mode)) |
| Cc1cc(CC2CN(CCCF)C2)sc1[C@@H]1c2[nH]c3ccccc3c2C[C@@H](C)N1CC(C)(C)F [Example I-6, 3-({5-[(1S,3R)-2-(2-fluoro-2-methylpropyl)-3-methyl-1H,2H,3H,4H,9H-pyrido[3,4-b]indol-1-yl]-4-methylthiophen-2-yl}methyl)-1-(3-fluoropropyl)azetidine] | ++ (estrogen receptor antagonism having (i) between 10% and 80% increase in the E2-normalized signal in the AP assay (agonist mode) and (ii) between 10% and 80% reduction in the E2-normalized signal in the AP assay (antagonist mode)) |
| CCCN1CC(Cc2ncc([C@@H]3c4[nH]c5ccccc5c4C[C@@H](C)N3CC(C)(C)F)s2)C1 [Example I-7, 5-((1S,3R)-2-(2-fluoro-2-methylpropyl)-3-methyl-2,3,4,9-tetrahydro-1H-pyrido[3,4-b]indol-1-yl)-2-((1-propylazetidin-3-yl)methyl)thiazole] | ++ (estrogen receptor antagonism having (i) between 10% and 80% increase in the E2-normalized signal in the AP assay (agonist mode) and (ii) between 10% and 80% reduction in the E2-normalized signal in the AP assay (antagonist mode)) |
| CCCN1CC(Cc2sc([C@@H]3c4[nH]c5ccccc5c4C[C@@H](C)N3CC(C)(C)F)cc2C)C1 [Example I-8, (1S,3R)-2-(2-fluoro-2-methylpropyl)-3-methyl-1-(4-methyl-5-((1-propylazetidin-3-yl)methyl)thiophen-2-yl)-2,3,4,9-tetrahydro-1H-pyrido[3,4-b]indole] | ++ (estrogen receptor antagonism having (i) between 10% and 80% increase in the E2-normalized signal in the AP assay (agonist mode) and (ii) between 10% and 80% reduction in the E2-normalized signal in the AP assay (antagonist mode)) |
| Cc1cc([C@@H]2c3[nH]c4ccccc4c3C[C@@H](C)N2CC(C)(C)F)sc1CC1CN(CCCF)C1 [Example I-9, (1S,3R)-2-(2-fluoro-2-methylpropyl)-1-(5-((1-(3-fluoropropyl)azetidin-3-yl)methyl)-4-methylthiophen-2-yl)-3-methyl-2,3,4,9-tetrahydro-1H-pyrido[3,4-b]indole] | ++ (estrogen receptor antagonism having (i) between 10% and 80% increase in the E2-normalized signal in the AP assay (agonist mode) and (ii) between 10% and 80% reduction in the E2-normalized signal in the AP assay (antagonist mode)) |
| CCCN1CC(Cc2sc([C@@H]3c4[nH]c5ccccc5c4C[C@@H](C)N3CC(C)(C)F)cc2F)C1 [Example I-10, (1S,3R)-2-(2-fluoro-2-methylpropyl)-1-(4-fluoro-5-((1-propylazetidin-3-yl)methyl)thiophen-2-yl)-3-methyl-2,3,4,9-tetrahydro-1H-pyrido[3,4-b]indole] | ++ (estrogen receptor antagonism having (i) between 10% and 80% increase in the E2-normalized signal in the AP assay (agonist mode) and (ii) between 10% and 80% reduction in the E2-normalized signal in the AP assay (antagonist mode)) |
| CCCN1CC(Cc2cc(F)c([C@@H]3c4[nH]c5ccccc5c4C[C@@H](C)N3CC(C)(C)F)s2)C1 [Example I-11, 3-({4-fluoro-5-[(1S,3R)-2-(2-fluoro-2-methylpropyl)-3-methyl-1H,2H,3H,4H,9H-pyrido[3,4-b]indol-1-yl]thiophen-2-yl}methyl)-1-propylazetidine] | ++ (estrogen receptor antagonism having (i) between 10% and 80% increase in the E2-normalized signal in the AP assay (agonist mode) and (ii) between 10% and 80% reduction in the E2-normalized signal in the AP assay (antagonist mode)) |
| C[C@@H]1Cc2c([nH]c3ccccc23)[C@@H](c2sc(CC3CN(CCCF)C3)cc2F)N1CC(C)(C)F [Example I-12, 3-({4-fluoro-5-[(1S,3R)-2-(2-fluoro-2-methylpropyl)-3-methyl-1H,2H,3H,4H,9H-pyrido[3,4-b]indol-1-yl]thiophen-2-yl}methyl)-1-(3-fluoropropyl)azetidine] | ++ (estrogen receptor antagonism having (i) between 10% and 80% increase in the E2-normalized signal in the AP assay (agonist mode) and (ii) between 10% and 80% reduction in the E2-normalized signal in the AP assay (antagonist mode)) |
| C[C@@H]1Cc2c([nH]c3ccccc23)[C@@H](c2cc(F)c(CC3CN(CCCF)C3)s2)N1CC(C)(C)F [Example I-13, (1S,3R)-2-(2-fluoro-2-methylpropyl)-1-(4-fluoro-5-((1-(3-fluoropropyl)azetidin-3-yl)methyl)thiophen-2-yl)-3-methyl-2,3,4,9-tetrahydro-1H-pyrido[3,4-b]indole] | ++ (estrogen receptor antagonism having (i) between 10% and 80% increase in the E2-normalized signal in the AP assay (agonist mode) and (ii) between 10% and 80% reduction in the E2-normalized signal in the AP assay (antagonist mode)) |
| C[C@@H]1Cc2c([nH]c3ccccc23)[C@@H](c2cnc(CC3CN(CCCF)C3)s2)N1CC(C)(C)F [Example I-14, 5-[(1S,3R)-2-(2-fluoro-2-methylpropyl)-3-methyl-1H,2H,3H,4H,9H-pyrido[3,4-b]indol-1-yl]-2-{[1-(3-fluoropropyl)azetidin-3-yl]methyl}-1,3-thiazole] | ++ (estrogen receptor antagonism having (i) between 10% and 80% increase in the E2-normalized signal in the AP assay (agonist mode) and (ii) between 10% and 80% reduction in the E2-normalized signal in the AP assay (antagonist mode)) |
| C[C@@H]1Cc2c([nH]c3ccccc23)[C@@H](c2ccc(CC3CN(CCC(F)(F)F)C3)s2)N1CC(C)(C)F [Example I-15, 3-({5-[(1S,3R)-2-(2-fluoro-2-methylpropyl)-3-methyl-1H,2H,3H,4H,9H-pyrido[3,4-b]indol-1-yl]thiophen-2-yl}methyl)-1-(3,3,3-trifluoropropyl)azetidine] | ++ (estrogen receptor antagonism having (i) between 10% and 80% increase in the E2-normalized signal in the AP assay (agonist mode) and (ii) between 10% and 80% reduction in the E2-normalized signal in the AP assay (antagonist mode)) |
